Assay results published in US8703964B2, “Bendamustine cyclopolysaccharide compositions” (Supratek Pharma Inc., priority 2009, dated 2014).

Assays:
[1] = test system: Lewis Lung carcinoma 3LL cells; test: Murine experimental lung metastasis model (Example 26); assay type: in vivo, C57Bl/6 mice; conditions: 50 mg/kg
Protocol: Female Charles Rivers C57Bl/6 mice, aged 5 to 6 weeks, were purchased from Charles River Canada Inc. The animals were kept 5 per cage with an air filter cover under light (12 light/dark cycle, light on at 6H00) and temperature (22°±1° C.)-controlled environment. All manipulations of animals were performed under a sterilized laminar hood. The animals had ad libitum access to Purina mouse chow (Pro Lab PMH 4018, Trademark of Agway, Syracuse, N.Y.) and water. These animal studies were conducted according to the “Guidelines for Care and Use of Experimental Animals”. Tumor Cell Culture:
Lewis Lung carcinoma 3LL cells were cultured in the appropriated culture medium. The cells were harvested in their logarithmic growth phase for the preparation of tumor implantation.
Lewis Lung carcinoma 3LL cells (2.0 to 5.0×10^5 cells in 200 ul PBS) were implanted intravenously by tail vein to establish experimental lung metastasis tumor models.
The treatments were performed on day after tumor implantation. The animals were dosed with the following dosing solutions.
non-formulated bendamustine (BM), (50 mg/kg)
Bendamustine (50 mg/kg) in 20% SBECD, 1% LMWP
Metastasis formation was evaluated by counting the numbers of metastasis spots on the lung surface. Routine metastasis examination were done for all organs at the end of the study.

[2] = test system: Human breast carcinoma (MDA-MB 231) subcutaneous solid tumours; test: Human breast carcinoma MDA-MB 231 s.c. solid tumours in nude mice (Example 27); assay type: in vivo, balb/c nu/nu mice; conditions: 35 mg/kg
Protocol: balb/c mice aged 5 to 6 weeks were purchased from Charles River Canada Inc. The animals were kept 5 per cage with an air filter cover under light (12 light/dark cycle, light on at 6 H00) and temperature (22° C.±1° C.)-controlled environment. All manipulations of animals were performed under a sterilized laminar hood. The animals had ad libitum access to Purina mouse chow (Pro Lab PMH 4018, Trademark of Agway, Syracuse, N.Y.) and water. These animal studies were conducted according to the “Guidelines for Care and Use of Experimental Animals”. Tumor Cell Culture: Human breast cancer cells MDA-MB 231 were cultured in the appropriated culture medium. The cells were harvested in their logarithmic growth phase for the preparation of tumor implantation. Tumor Implantation: Human tumor or myeloma cells (2.5 to 5.0×10^6 cells) were implanted subcutaneously in 0.200 mL of medium containing 30% Matrigel on the two flanks of balb/c nu/nu mice through a 1 to 2 cm long 20-gauge needle. Treatments: 2 to 3 weeks after tumor cell implantation, animals that developed s.c. solid tumors were selected and divided into several homogeneous groups (n=5 animals per group or dose) with respect to tumor size (0.5 to 0.8 cm in diameter). The treatments were performed next day. The animals were dosed with the following dosing solutions. Control: (0.9%, NaCl) Compositions:
non-formulated Bendamustine, (35 mg/kg)
Bendamustine (35 mg/kg) in 40% SBECD, 1% protamine sulfate (formulated BM)
Subcutaneous solid tumor measurements were performed on the day of first injection and at 3- to 4-day intervals thereafter. The two largest perpendicular diameters of each tumor were measured with calipers and tumor sizes were estimated using the formula: TV=L×W/2 where TV: tumor volume; L: length; W: width. The body weights of animals were also noted.

**Q.** Which results are given for `Cn1c(CCCC(=O)O)nc2cc(N(CCCl)CCCl)ccc21` [BM, 4-[5-[bis(2-chloroethyl)amino]-1-methylbenzimidazol-2-yl]butanoic acid]?
**A.** Lung metastasis number ([1]; 3LL i.v. implanted, C57Bl/6 mice): 56.1 ± 9.5; Inhibition on metastasis formation vs control ([1]; 3LL lung metastasis, mice): 14.4%; Inhibition on metastasis formation vs not formulated BM ([1]; 3LL lung metastasis, mice): 0%; Tumor weight after treatment, Average (SEM) ([2]; day 0): 0.237 (0.008) g; Tumor weight after treatment, Average (SEM) ([2]; day 2): 0.250 (0.028) g; Tumor weight after treatment, Average (SEM) ([2]; day 4): 0.294 (0.027) g; Tumor weight after treatment, Average (SEM) ([2]; day 7): 0.313 (0.030) g; Tumor weight after treatment, Average (SEM) ([2]; day 9): 0.349 (0.038) g; Tumor weight after treatment, Average (SEM) ([2]; day 11): 0.417 (0.046) g; Inhibition % vs control (on day 14) ([2]; day 14): 70.2%; Tumor volume on day 14 ([2]; day 14): 0.54 ± 0.06 g; Tumor weight after treatment, Average (SEM) ([2]; day 14): 0.537 (0.055) g; Body weight on day 14 ([2]; nude mice with MDA-MB 231 tumours): 18.1 ± 0.39 g
